Reference: publication PMC6171417, “Carbonic anhydrase inhibition with a series of novel benzenesulfonamide-triazole conjugates” (Journal of Enzyme Inhibition and Medicinal Chemistry, 2018)

Tests used:
Test in all cases: cells
Set-up in all cases: species or system NCI human tumour cell line panel
[1] = system: T-47D; conditions: Homo sapiens, T47D; growth inhibition (GI%), single dose
[2] = system: MDA-MB-468; conditions: Homo sapiens, MDA-MB-468; growth inhibition (GI%), single dose
[3] = system: SNB-19; conditions: Homo sapiens, SNB-19; growth inhibition (GI%), single dose
[4] = system: CCRF-CEM; conditions: Homo sapiens, CCRF-CEM; growth inhibition (GI%), single dose
[5] = system: SF-539; conditions: Homo sapiens, SF-539; growth inhibition (GI%), single dose
[6] = system: HCT-116; conditions: Homo sapiens, HCT-116; growth inhibition (GI%), single dose
[7] = system: SNB-75; conditions: Homo sapiens, SNB-75; growth inhibition (GI%), single dose
[8] = system: PC-3; conditions: Homo sapiens, PC-3; growth inhibition (GI%), single dose

With `N#Cc1nnn(-c2ccc(S(N)(=O)=O)cc2)c1NC(=O)CCl` [compound 5, 5] the inhibition at 10 µM [1] was 4.8%, the inhibition at 10 µM [2] was 1.3% and the inhibition at 10 µM [3] was 3.8%. The inhibition at 10 µM [4] was 11.3%, the inhibition at 10 µM [5] was 1.3% and the inhibition at 10 µM [6] was 5.4%. For the same molecule, the inhibition at 10 µM [7] was 14.5% and the inhibition at 10 µM [8] was 10.3%.
